What was measured:
[1] = tested on: CASOB (Sicklepod); experiment: Postemergence herbicidal evaluation; format: in vivo, Cassia obtusifolia; conditions: for CASOB herbicidal rating: postemergence
Summary of the method: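 Rate range approx. 0.0156–0.500 kg/ha. Foliar application at 40 psi to ~2-week seedlings; surfactant 0.5% TWEEN 20 in 50/50 acetone/water. Evaluation 4–5 wk post-treatment by 0–9 visual injury score, means of replicate tests.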

[2] = tested on: GLXMAW (Soybean, Williams); experiment: Preemergence herbicidal evaluation; format: in vivo, Glycine max, (L.) Merr. cv Williams; conditions: rated 4-5 weeks after treatment
Summary of the method: (§1)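 Scores (0–9) reflect visual comparison with control plants for stand, vigor, malformation, size and chlorosis. Compound was applied to the soil after sowing, before emergence, as an aqueous acetone spray (about 0.0156–0.500 kg/ha), and cups were kept in a greenhouse for 4–5 weeks.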

[3] = tested on: ORYSAT (Rice, Tebonnet); experiment: Preemergence herbicidal evaluation; format: in vivo, Oryza sativa, (L.) Tebonnet; conditions: rated 4-5 weeks after treatment
Summary of the method: as §1

[4] = tested on: TRZAWR (Wheat, Winter, cv Riband); experiment: Preemergence herbicidal evaluation; format: in vivo, Triticum aestivum; conditions: rated 4-5 weeks after treatment
Summary of the method: as §1

[5] = tested on: SAGPY (Arrowhead (Pygmaea)); experiment: Preemergence weed control under flooded paddy conditions; format: in vivo, Sagittaria pygmaea; conditions: rated 3-4 weeks after treatment
Summary of the method: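 Values are visual 0-9 scores against a control for a preemergence application into paddy flood water at about 0.0313 to 0.500 kg/ha. Greenhouse duration was three to four weeks.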

[6] = tested on: ORYSAT (Rice, Tebonnet); experiment: Rice tolerance to post-transplant applications, flooded paddy conditions (Table III); format: in vivo, Oryza sativa, (L.) Tebonnet; conditions: in vivo
Summary of the method: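 Two ten-day-old Tebonnet seedlings transplanted into flooded silt loam (water 1.5 to 3 cm above soil); three days later the water surface was treated with compound in aqueous/acetone 50/50 at about 0.0313 to 0.500 kg/ha. Visual 0-9 injury rating versus control after three to four weeks in greenhouse.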

[7] = tested on: MOOVA (Monochoria); experiment: Postemergence weed control under flooded paddy conditions; format: in vivo, Monochoria vaginalis; conditions: postemergence weeds
Summary of the method: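 With weeds 3 to 5 cm tall and rice at the 1.5 to 2.5 leaf stage, containers were flooded and water held 1.5 to 3 cm above soil. Compounds in 50/50 v/v aqueous/acetone went into the flood water at about 0.0313 to 0.500 kg/ha a.i. Effects were visually rated 0–9 against controls after three to four weeks in the greenhouse.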

[8] = tested on: ORYSAT (Rice, Tebonnet); experiment: Rice tolerance to post-transplant applications, flooded paddy conditions (Table IV); format: in vivo, Oryza sativa, (L.) Tebonnet; conditions: in vivo
Summary of the method: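 Herbicidal effect is judged by eye on a 0–9 scale versus control, 3–4 weeks after dosing. Dosing is into flood water kept 1.5–3 cm over the soil, at about 0.0313–0.500 kg/ha in aqueous/acetone 50/50 v/v, on 3–5 cm weeds and 1.5–2.5-leaf rice seedlings.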

Cn1c(C(F)(F)F)cc(=O)n(-c2cc(/N=C3/SC(CC(=O)O)C(=O)N3CC(=O)O)c(Cl)cc2F)c1=O (stereo not shown) [Compound 61, 2-{{2-Chloro-5-[3,6-dihydro-3-methyl-2,6-dioxo-4-(trifluoromethyl)-1(2H)-pyrimidinyl]-4-fluorophenyl}imino}-4-oxo-3,5-thiazolidinediacetic acid]
Postemergence herbicidal rating CASOB ([1]; Rate 0.0158 kg/ha): 0.0
Postemergence herbicidal rating CASOB ([1]; Rate 0.0315 kg/ha): 0.0
Postemergence herbicidal rating CASOB ([1]; Rate 0.0630 kg/ha): 0.0
Preemergence herbicidal rating GLXMAW ([2]; rate 0.1250 kg/ha): 0.0
Preemergence herbicidal rating GLXMAW ([2]; rate 0.2500 kg/ha): 1.0
Preemergence herbicidal rating ORYSAT ([3]; rate 0.1250 kg/ha): 0.0
Preemergence herbicidal rating ORYSAT ([3]; rate 0.2500 kg/ha): 1.0
Preemergence herbicidal rating TRZAWR ([4]; rate 0.1250 kg/ha): 0.0
Preemergence herbicidal rating TRZAWR ([4]; rate 0.2500 kg/ha): 1.0
SAGPY herbicidal effect rating ([5]; 0.2500 kg/ha): 0.0
ORYSAT herbicidal effect rating (rice tolerance) [6]: 0.0
Herbicidal rating MOOVA ([7]; Rate 0.2500 kg/ha, rated 3 to 4 weeks after treatment): 0.0
Herbicidal rating ORYSAT (rice tolerance) [8]: 0.0

CCOC(=O)CN1C(=O)C(CC(=O)O)S/C1=N/c1cc(-n2c(=O)cc(C(F)(F)F)n(C)c2=O)c(F)cc1Cl (stereo not shown) [Compound 16]
CASOB herbicidal rating ([1]; rate 0.0157 kg/ha): 9.0
CASOB herbicidal rating ([1]; rate 0.0313 kg/ha): 6.2
CASOB herbicidal rating ([1]; rate 0.0625 kg/ha): 8.0
CASOB herbicidal rating ([1]; rate 0.1250 kg/ha): 9.0
CASOB herbicidal rating ([1]; rate 0.2500 kg/ha): 9.0
GLXMAW preemergence herbicidal rating ([2]; rate 0.0156 kg/ha): 0.5
GLXMAW preemergence herbicidal rating ([2]; rate 0.0313 kg/ha): 0.7
GLXMAW preemergence herbicidal rating ([2]; rate 0.0625 kg/ha): 1.5
GLXMAW preemergence herbicidal rating ([2]; rate 0.1250 kg/ha): 4.5
GLXMAW preemergence herbicidal rating ([2]; rate 0.2500 kg/ha): 7.7
GLXMAW preemergence herbicidal rating ([2]; rate 0.5000 kg/ha): 9.0
ORYSAT preemergence herbicidal rating ([3]; rate 0.0156 kg/ha): 0.1
ORYSAT preemergence herbicidal rating ([3]; rate 0.0313 kg/ha): 0.3
ORYSAT preemergence herbicidal rating ([3]; rate 0.0625 kg/ha): 1.0
ORYSAT preemergence herbicidal rating ([3]; rate 0.1250 kg/ha): 2.2
ORYSAT preemergence herbicidal rating ([3]; rate 0.2500 kg/ha): 4.3
ORYSAT preemergence herbicidal rating ([3]; rate 0.5000 kg/ha): 6.4
TRZAWR preemergence herbicidal rating ([4]; rate 0.0156 kg/ha): 0.1
TRZAWR preemergence herbicidal rating ([4]; rate 0.0313 kg/ha): 0.5
TRZAWR preemergence herbicidal rating ([4]; rate 0.0625 kg/ha): 0.5
TRZAWR preemergence herbicidal rating ([4]; rate 0.1250 kg/ha): 0.8
TRZAWR preemergence herbicidal rating ([4]; rate 0.2500 kg/ha): 2.6
TRZAWR preemergence herbicidal rating ([4]; rate 0.5000 kg/ha): 5.8
Herbicidal rating SAGPY ([5]; 0.0313 kg/ha): 0.0
Herbicidal rating SAGPY ([5]; 0.0625 kg/ha): 0.0
Herbicidal rating SAGPY ([5]; 0.1250 kg/ha): 0.0
Herbicidal rating SAGPY ([5]; 0.2500 kg/ha): 0.0
Herbicidal rating ORYSAT (rice tolerance) [6]: 0.0
Herbicidal rating MOOVA ([7]; rate 0.0313 kg/ha, 3-4 weeks after treatment): 9.0
Herbicidal rating MOOVA ([7]; rate 0.0625 kg/ha, 3-4 weeks after treatment): 9.0
Herbicidal rating MOOVA ([7]; rate 0.1250 kg/ha, 3-4 weeks after treatment): 9.0
Herbicidal rating MOOVA ([7]; rate 0.2500 kg/ha, 3-4 weeks after treatment): 3.0
Herbicidal rating ORYSAT (rice tolerance) [8]: 0.0

Source: patent US20020137929A1, “1 - (3-heterocyclylphenyl) isothiourea, -isourea, -guanidine and -amidine herbicidal agents” (Intellectual Property Department, BASF Aktiengesellschaft, priority 1998, published 2002)
